The values below come from ChEMBL document CHEMBL2375258, “Synthesis of (R)-norbgugaine and its potential as quorum sensing inhibitor against Pseudomonas aeruginosa” (Bioorg Med Chem Lett, 2013).

Calls of active or inactive are those of the source. The rule behind the calls is not given here.

The test system of test [1] is Pseudomonas aeruginosa. The experiment in a line: Inhibition of quorum sensing system in Pseudomonas aeruginosa ATCC 27853 assessed as inhibition of […] pigmentation at 0.1 to 0.5 mM relative to control.
Test [2] deals with Pseudomonas aeruginosa. The experiment in a line: Inhibition of quorum sensing system in Pseudomonas aeruginosa ATCC 27853 assessed as inhibition of rhamnolipid production at 0.1 to 0.5 mM relative to control.
The subject of test [3] is Pseudomonas aeruginosa. The experiment in a line: Antibacterial activity against Pseudomonas aeruginosa ATCC 27853 assessed as growth inhibition at 100 ug/mL measured every 2 hrs up to 20 hrs. Type of test: functional, organism-based.
Test [4] deals with Pseudomonas aeruginosa. The test can be described thus: Inhibition of quorum sensing system in Pseudomonas aeruginosa ATCC 27853 assessed as inhibition of swarming motility at 0.1 to 0.5 mM after 24 hrs relative to control.
Test [5] has as its system Pseudomonas aeruginosa. The experiment in a line: Inhibition of quorum sensing system in Pseudomonas aeruginosa ATCC 27853 assessed as inhibition of biofilm formation at > 1.8 mM after 24 hrs by crystal violet staining method relative to control.
For test [6], the system named is Pseudomonas aeruginosa. The experiment in a line: Inhibition of quorum sensing system in Pseudomonas aeruginosa ATCC 27853 assessed as inhibition of twitching motility at 0.1 to 0.5 mM after 24 hrs relative to control.
The subject of test [7] is Pseudomonas aeruginosa. The test can be described thus: Inhibition of quorum sensing system in Pseudomonas aeruginosa ATCC 27853 assessed as inhibition of swimming motility at 0.1 to 0.5 mM after 24 hrs relative to control.
For test [8], the system named is Pseudomonas aeruginosa. The test can be described thus: Inhibition of quorum sensing system in Pseudomonas aeruginosa ATCC 27853 assessed as inhibition of LasA at 0.1 to 0.5 mM relative to control.
In test [9] the test system is Pseudomonas aeruginosa. The test can be described thus: Ratio of compound activity to salicylic acid activity for inhibition of quorum sensing system-mediated biofilm formation in Pseudomonas aeruginosa ATCC 27853.
Test [10] relates to Pseudomonas aeruginosa. The settings on record: ATCC 27853, 4 mM.
Description: Inhibition of quorum sensing system in Pseudomonas aeruginosa ATCC 27853 assessed as inhibition of biofilm formation at 4 mM after 24 hrs by crystal violet staining method relative to control

Consider `CCCCCCCCCCCCCC[C@@H]1CCCN1`, for which the inhibition in the test on Pseudomonas aeruginosa [1] was determined as 37%; in the test with Pseudomonas aeruginosa [2] it was 42%; in the test on Pseudomonas aeruginosa [4], 95%; in the test with Pseudomonas aeruginosa [5], 83%; with Pseudomonas aeruginosa [6], 15%; with Pseudomonas aeruginosa [7] it was 33%. Also, the inhibition in the test on Pseudomonas aeruginosa [8] amounted to 34%. Further, the “growth inhibition (GI)” value with Pseudomonas aeruginosa [3] was “inactive”. Besides, in the test with Pseudomonas aeruginosa [9], the Ratio turned out to be 2.

Consider `O=C(O)c1ccccc1O`, for which the inhibition was 48% in the test with Pseudomonas aeruginosa [10], 60% in the test with Pseudomonas aeruginosa [4], 35% in the test with Pseudomonas aeruginosa [6] and 40% in the test on Pseudomonas aeruginosa [7].
